Laboratory results reported in patent publication US20260108442A1, “COMPOUND FOR USE IN PROTECTING SKIN” (TDELTAS LIMITED, priority 2013, published 2026).

Experiments:
[1] = tested on: hands of the user (skin); assay: Neat topical application to dry hands, visual inspection; format: in vivo; settings: used neat, massaged into dry hands, inspected after 30 minutes
Source text: D-betahydroxybutyrate butanediol monoester was used neat in this experiment. The hands of the user were visually inspected prior to application of the D-betahydroxybutyrate butanediol monoester. […] D-betahydroxybutyrate butanediol monoester was applied to the hands and massaged in to the skin thoroughly.

[2] = tested on: Human dermal fibroblast cells; assay: Cell survival after UVB irradiation, Trypan blue exclusion; format: cell-based; settings: viable cells at 48 hours after irradiation, FIG. 2
Description: Human dermal fibroblast cells were cultured in basal medium in 6-well plates at 50,000 cells per well. The cells were incubated in medium alone or with added 4 mM R-3-hydroxybutyl-(R)-3-hydroxybutyrate. After reaching 80-90% confluence, cells were washed with phosphate-buffered saline and the medium was replaced with a thin layer of Hanks buffer, (a balanced salt solution designed to use with cells in non-CO2 atmospheric conditions). Cells were irradiated at doses of 25, 50, 100, 150, 300 and 600 mJ/cm^2 using a portable UVB source (302 nm) with a fluence rate of 0.9 mW/cm^2 at cell level. UV irradiation was performed in a fume hood to maintain sterility. After irradiation, cells were washed and incubated in medium alone or with added 4 mM R-3-hydroxybutyl-(R)-3-hydroxybutyrate (as they had been before irradiation). Another group of irradiated cells, which had initially been grown in basal medium without deltaG, was incubated with added 4 mM R-3-hydroxybutyl-(R)-3-hydroxybutyrate. Cell survival was determined by counting viable cells using Trypan blue exclusion at 48 hours after irradiation.

[3] = tested on: Primary human dermal fibroblasts (HDF); assay: Live and dead assay (Calcein AM / EthD-III) of human dermal fibroblast growth; format: cell-based; settings: 4 mM in basal medium, after 10 days incubation, FIG. 1
Description: Primary human dermal fibroblasts (HDF), with a seeding capacity of 2,500 cells/cm^2, […] (HF) basal medium (TCS Cellworks) or basal medium containing 4 mM of the ketone ester, deltaG. The basal medium was changed daily. Cell viability was determined using a live and dead assay kit, with two colour fluorescence staining of live and dead cells using the probes, Calcein AM and EthD-III.

C[C@@H](O)CCOC(=O)C[C@@H](C)O [R-3-hydroxybutyl-(R)-3-hydroxybutyrate]
visual inspection of hands (dryness, wrinkling, feel) [1]: visually noticeable improvement in properties including less dryness, less wrinkling and an improved feel
protection from UVB radiation (cell survival) ([2]; 4 mM both before and after radiation exposure, compared with after radiation only): conferred no further benefit
protection from UVB radiation (cell survival) ([2]; 4 mM given to the cells after radiation, UVB 302 nm, doses between 150 and 600 mJ/cm^2, p<0.05): protected human dermal fibroblasts from UVB radiation
dead cells ([3]; compared with control): fewer dead cells
live cells ([3]; vs. 75% in control, P<0.05): 89%
